Source: patent US20230310436A1, “COMBINATION THERAPY FOR CANCERS WITH KRAS MUTATION” (COTHERA BIOSCIENCE, INC., priority 2019, published 2023)

Assays:
Assay type in all cases: cell-based
[1] = test system: KRAS^G12D-NSCLC H1588 cell line; test: Ex vivo Edu proliferation test (MI, GI %), H1588; settings: Table 4; 4 days; uM: osimertinib 0.5, afatinib 0.2, cobimetinib 0.4, trametinib 0.02, TAK-733 0.18, palbociclib 0.15, ribociclib 5
Procedure: (§1) For ex vivo drug testing, the cells were exposed to a combination of drugs or single drugs for 4 days or 7 days. Following exposure with drug, 1,000-5,000 cells were labeled with 5-ethynyl-2′-deoxyuridine (Edu) to assess the tumor cell proliferation rates. The labeling lasted 24 hours in the presence of drug exposure. In the control group, epithelial tumor cells received no drug exposure with media change (with 0.1% DMSO), but were similarly labeled with Edu. The labeled cells were fixed and blocked with 3% BSA and 0.5% Triton X-100 for 2 hours at room temperature, followed by staining with Hoechst 33342 and EpCAM antibody (1:4000) in PBS solution containing 0.5% Triton X-100 overnight at 4° C. Subsequently, the cells were rinsed with PBST then incubated with Alexa Fluor® 647 conjugated goat-antimouse secondary antibody for 30 minutes at room temperature.
(§2) The incorporated Edu was detected by Click-iT reaction where fixed cells were incubated with a reaction mixture containing 1× Click-iT Edu reaction buffer, CuSO4, and azide-conjugated Alexa Fluor dye in the dark. The stained cells were washed with PBS two times before image acquisition and analysis.
(§3) For image acquisition and analysis, the stained tumor cells were imaged by a high-content screening (HCS) platform (Thermo Scientific CellomicsArrayScanXTi HCS reader). The 10× objective was used to collect images. Twenty-five fields were imaged for each well for the analysis. From the images three fluorescent signals were obtained from the HCS reader. Blue fluorescent signals recorded nucleus signals stained with Hoechst 33342, green fluorescent signal detected the Edu incorporated in newly synthesized DNA, and red fluorescent signal detected the EpCAM positive epithelial cells population.
(§4) The MI (Maximum Inhibition Index) was calculated using the EpCAM and Edu positive readout (Tables 1-4). MI=Edu positive cells in control/Edu positive cells in treatment. MI4 indicates an MI value after 4 days of treatment and MI7 indicates an MI values after 7 days of treatment. The MI and growth inhibition rate (GI %) values for KRAS^G12A-NSCLC (H1573 and H2009), KRAS^G12C-NSCLC (H358, H23 and H2030), KRAS^G12V-NSCLC (H2291 and H2444) and KRAS^G12D-NSCLC (H1588 and SK-LU-1) cell lines are shown in Tables 1-4, respectively. GI % is calculated as GI %=(1−1/MI)*100%.

[2] = test system: KRAS^G12V-NSCLC H2291 cell line; test: Ex vivo Edu proliferation test (MI, GI %), H2291; settings: Table 3; 7 days; uM: osimertinib 0.5, afatinib 0.2, trametinib 0.02, TAK-733 0.18, palbociclib 0.15, ribociclib 5
Procedure: as §1, §2, §3, §4

[3] = test system: KRAS^G12C-NSCLC H358 cell line; test: Ex vivo Edu proliferation test (MI, GI %), H358; settings: Table 2a; 7 days; uM: osimertinib 0.5, afatinib 0.2, cobimetinib 0.4, trametinib 0.02, palbociclib 0.15, ribociclib 5
Procedure: as §1, §2, §3, §4

[4] = test system: KRAS^G12V-NSCLC H2444 cell line; test: Ex vivo Edu proliferation test (MI, GI %), H2444; settings: Table 3; 4 days; uM: osimertinib 0.5, afatinib 0.2, trametinib 0.02, TAK-733 0.18, palbociclib 0.15, ribociclib 5
Procedure: as §1, §2, §3, §4

[5] = test system: KRAS^G12C-NSCLC H23 cell line; test: Ex vivo Edu proliferation test (MI, GI %), H23; settings: Table 2a; 7 days; uM: osimertinib 0.5, afatinib 0.2, cobimetinib 0.4, trametinib 0.02, palbociclib 0.15, ribociclib 5
Procedure: as §1, §2, §3, §4

[6] = test system: KRAS^G12C-NSCLC H2030 cell line; test: Ex vivo Edu proliferation test (MI, GI %), H2030; settings: Table 2a; 7 days; uM: osimertinib 0.5, afatinib 0.2, cobimetinib 0.4, trametinib 0.02, palbociclib 0.15, ribociclib 5
Procedure: as §1, §2, §3, §4

[7] = test system: KRAS^G12A-NSCLC H2009 cell line; test: Ex vivo Edu proliferation test (MI, GI %), H2009; settings: Table 1; 4 days; uM: osimertinib 0.5, afatinib 0.2, cobimetinib 0.4, trametinib 0.02, TAK-733 0.18, palbociclib 0.15, ribociclib 5
Procedure: as §1, §2, §3, §4

[8] = test system: KRAS^G12D-NSCLC SK-LU-1 cell line; test: Ex vivo Edu proliferation test (MI, GI %), SK-LU-1; settings: Table 4; 4 days; uM: osimertinib 0.5, afatinib 0.2, cobimetinib 0.4, trametinib 0.02, TAK-733 0.18, palbociclib 0.15, ribociclib 5
Procedure: as §1, §2, §3, §4

[9] = test system: KRAS^G12A-NSCLC H1573 cell line; test: Ex vivo Edu proliferation test (MI, GI %), H1573; settings: Table 1; 4 days; uM: osimertinib 0.5, afatinib 0.2, cobimetinib 0.4, trametinib 0.02, TAK-733 0.18, palbociclib 0.15, ribociclib 5
Procedure: as §1, §2, §3
The MI (Maximum Inhibition Index) was calculated using the EpCAM and Edu positive readout (Tables 1-4). MI=Edu positive cells in control/Edu positive cells in treatment. MI4 indicates an MI value after 4 days of treatment and MI7 indicates an MI values after 7 days of treatment. […] GI % is calculated as GI %=(1−1/MI)*100%.

SMILES | GI % (Growth Inhibition Rate), H1588 [1] | MI 4 (Maximum Inhibition Index), H1588 [1] | GI % (Growth Inhibition Rate), H2291 [2] | MI 7 (Maximum Inhibition Index), H2291 [2] | GI % (Growth Inhibition Rate), H358 [3] | MI 7 (Maximum Inhibition Index), H358 [3] | GI % (Growth Inhibition Rate), H2444 [4] | MI 4 (Maximum Inhibition Index), H2444 [4] | GI % (Growth Inhibition Rate), H23 [5] | MI 7 (Maximum Inhibition Index), H23 [5] | GI % (Growth Inhibition Rate), H2030 [6] | MI 7 (Maximum Inhibition Index), H2030 [6] | GI % (Growth Inhibition Rate), H2009 [7] | MI 4 (Maximum Inhibition Index), H2009 [7] | GI % (Growth Inhibition Rate), SK-LU-1 [8] | MI 4 (Maximum Inhibition Index), SK-LU-1 [8] | GI % (Growth Inhibition Rate), H1573 [9] | MI 4 (Maximum Inhibition Index), H1573 [9]
CC(=O)Nc1cccc(-n2c(=O)n(C3CC3)c(=O)c3c(Nc4ccc(I)cc4F)n(C)c(=O)c(C)c32)c1 [Trametinib, trametinib] | 45.63% | 1.84 | 75.62% | 4.11 | 20.76% | 1.26 | 87.22% | 7.82 | 1.20% | 1.01 | 64.45% | 2.81 | 65.93% | 2.93 | 47.99% | 1.92 | 87.80% | 8.20
CN(C)C(=O)c1cc2cnc(Nc3ccc(N4CCNCC4)cn3)nc2n1C1CCCC1 [Ribociclib, ribociclib] | 60.57% | 2.54 | 98.65% | 72.98 | 95.43% | 21.19 | 74.54% | 3.93 | 74.57% | 3.96 | 84.67% | 6.57 | 10.09% | 1.11 | 91.58% | 11.88 | 99.00% | 100.43
CN(C)C/C=C/C(=O)Nc1cc2c(Nc3ccc(F)c(Cl)c3)ncnc2cc1O[C@H]1CCOC1 [Afatinib, afatinib] | 43.02% | 1.75 | 26.00% | 1.35 | 22.84% | 1.30 | 44.30% | 1.80 | 16.09% | 0.87 | 55.33% | 2.23 | 14.83% | 1.17 | 8.65% | 1.09 | 42.36% | 1.73
